According to PubChem BioAssay (NCI):
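Step 1: Grow cells in 96-well plates. Step 2: Expose to compound for 48 hours at 5 concentrations. Step 3: Interpolate endpoints linearly; if unreached, use highest concentration. At the TGI there is no net growth.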

What was measured:
Assay in all cases: NCI anticancer screen, dose series, 48 h
SN12C renal = test system: SN12C renal
RPMI-8226 leukemia = test system: RPMI-8226 leukemia
MOLT-4 leukemia = test system: MOLT-4 leukemia
SR leukemia = test system: SR leukemia
TK-10 renal = test system: TK-10 renal
SK-OV-3 ovarian = test system: SK-OV-3 ovarian
NCI-H226 lung = test system: NCI-H226 lung
UO-31 renal = test system: UO-31 renal
NCI-H23 lung = test system: NCI-H23 lung
HT29 colon = test system: HT29 colon
UACC-257 melanoma = test system: UACC-257 melanoma
SNB-75 CNS = test system: SNB-75 CNS
HCC-2998 colon = test system: HCC-2998 colon
A498 renal = test system: A498 renal
K-562 leukemia = test system: K-562 leukemia
A549 NSCLC = test system: A549 NSCLC
MDA-N = test system: MDA-N
U251 CNS = test system: U251 CNS
MDA-MB-231 breast = test system: MDA-MB-231 breast
HL-60(TB) leukemia = test system: HL-60(TB) leukemia

| Structure (SMILES) | TGI (SN12C renal) [µM] | TGI (RPMI-8226 leukemia) [µM] | TGI (MOLT-4 leukemia) [µM] | TGI (SR leukemia) [µM] | TGI (TK-10 renal) [µM] | TGI (SK-OV-3 ovarian) [µM] | TGI (NCI-H226 lung) [µM] | TGI (UO-31 renal) [µM] | TGI (NCI-H23 lung) [µM] | TGI (HT29 colon) [µM] | TGI (UACC-257 melanoma) [µM] | TGI (SNB-75 CNS) [µM] | TGI (HCC-2998 colon) [µM] | TGI (A498 renal) [µM] | TGI (K-562 leukemia) [µM] | TGI (A549 NSCLC) [µM] | TGI (MDA-N) [µM] | TGI (U251 CNS) [µM] | TGI (MDA-MB-231 breast) [µM] | TGI (HL-60(TB) leukemia) [µM] |
| --- | --- | --- | --- | --- | --- | --- | --- | --- | --- | --- | --- | --- | --- | --- | --- | --- | --- | --- | --- | --- |
| COC(CC1(/C=C/O[Si](C(C)C)(C(C)C)C(C)C)C(=O)N(COCC[Si](C)(C)C)c2ccccc21)OC (stereo not given) | > 100 | > 100 | > 100 | > 100 | > 100 | 51.2 | > 100 | > 100 | > 100 | > 100 | > 100 | > 100 | > 100 | > 100 | > 100 | > 100 | > 100 | > 100 | > 100 | – |
| CCOC(=O)C1=c2[nH]c3cccc4cccc(c43)n2C(=O)CC1c1ccccc1 (stereo not given) | > 100 | > 100 | > 100 | > 100 | > 100 | > 100 | > 100 | > 100 | > 100 | > 100 | > 100 | > 100 | > 100 | > 100 | > 100 | > 100 | > 100 | > 100 | > 100 | > 100 |
| O=C(CC(C(=O)c1cccs1)c1cccs1)c1ccccc1Cl (stereo not given) | > 100 | > 100 | > 100 | > 100 | > 100 | > 100 | > 100 | > 100 | > 100 | > 100 | > 100 | > 100 | > 100 | > 100 | > 100 | > 100 | > 100 | > 100 | > 100 | > 100 |
| COc1cccc(C2ON=C(c3ccccc3)N2C23CC4CC(CC(C4)C2)C3)c1 (stereo not given) | > 10 | > 10 | > 10 | > 10 | > 10 | > 10 | > 10 | – | > 10 | > 10 | > 10 | > 10 | > 10 | > 10 | > 10 | > 10 | > 10 | > 10 | > 10 | > 10 |
| COc1cc(C(=O)C2C(=O)c3ccccc3C2C2(O)c3ccccc3CC2C(O)c2cc(OC)c(OC)c(OC)c2)cc(OC)c1OC (stereo not given) | > 100 | 84.4 | > 100 | > 100 | > 100 | > 100 | > 100 | > 100 | > 100 | > 100 | > 100 | 94.3 | > 100 | > 100 | > 100 | > 100 | > 100 | > 100 | > 100 | – |
| O=C(Nc1nc(C23CC4CC(CC(C4)C2)C3)cs1)c1cc2cc(Cl)ccc2oc1=O | > 100 | > 100 | > 100 | > 100 | > 100 | – | > 100 | > 100 | > 100 | > 100 | > 100 | > 100 | > 100 | > 100 | > 100 | > 100 | > 100 | > 100 | > 100 | > 100 |
| CCN1C(=O)/C(=C2\SC(c3ccccc3)(c3ccccc3)c3ccccc32)SC1=S | > 100 | > 100 | > 100 | 42.9 | > 100 | > 100 | > 100 | > 100 | > 100 | > 100 | > 100 | > 100 | > 100 | > 100 | > 100 | > 100 | > 100 | > 100 | > 100 | – |
| COc1ccc(P2(=S)SP(=S)(c3ccc(Cl)cc3)S2)cc1 (stereo not given) | > 100 | > 100 | > 100 | > 100 | > 100 | > 100 | > 100 | > 100 | > 100 | > 100 | > 100 | > 100 | > 100 | > 100 | – | > 100 | > 100 | > 100 | > 100 | > 100 |
| CC(C)OP(=O)(OC(C)C)c1ccc2c(c1)OCCOCCOCCOCCO2 | > 100 | > 100 | > 100 | > 100 | > 100 | > 100 | > 100 | > 100 | > 100 | > 100 | > 100 | > 100 | > 100 | > 100 | > 100 | > 100 | > 100 | – | > 100 | > 100 |
| CCOC(=O)C1C(c2ccc(O)c(OC)c2)c2c([nH][nH]c2=O)CC1(C)O (stereo not given) | > 100 | > 100 | > 100 | > 100 | > 100 | – | – | > 100 | > 100 | > 100 | > 100 | > 100 | > 100 | > 100 | – | > 100 | > 100 | > 100 | > 100 | > 100 |
| COC1(OC)N=C(N)C2(C#N)C3(C(=O)N(C(C)C)N=C3C)C12C#N (stereo not given) | > 100 | > 100 | > 100 | > 100 | – | > 100 | > 100 | > 100 | > 100 | > 100 | > 100 | > 100 | > 100 | > 100 | > 100 | > 100 | > 100 | > 100 | > 100 | > 100 |
| Cc1ccc(N=C2S/C(=C3/CCC=C3N3CCOCC3)N(c3ccc(Cl)cc3)C2=Nc2ccc(C)cc2)cc1 | > 100 | > 100 | > 100 | > 100 | > 100 | – | > 100 | > 100 | > 100 | > 100 | > 100 | > 100 | > 100 | > 100 | > 100 | > 100 | > 100 | > 100 | > 100 | > 100 |
| O=[N+]1ON=C(c2ccccc2)C1=C1C(c2c(-c3ccccc3)no[n+]2[O-])=NON1[O-] | > 100 | > 100 | > 100 | > 100 | > 100 | > 100 | 62.5 | 48.6 | 20.7 | 24.8 | 67.3 | 33.2 | > 100 | 43.7 | 10.6 | > 100 | 10.5 | – | 95.9 | 7.52 |
| O=C1CCCC(=O)N1n1c(Cc2ccccc2)n[nH]c1=O | > 100 | > 100 | > 100 | > 100 | > 100 | > 100 | > 100 | > 100 | > 100 | > 100 | > 100 | > 100 | – | > 100 | > 100 | > 100 | > 100 | > 100 | > 100 | > 100 |
| Cc1c(-c2ccccc2)c(C#N)c2nnn(C3CCCCC3)c(=O)n12 | > 100 | > 100 | – | > 100 | > 100 | > 100 | > 100 | 6.85 | > 100 | > 100 | > 100 | 68.8 | > 100 | > 100 | > 100 | > 100 | > 100 | > 100 | 66 | > 100 |
| O=C1C(Cl)C2(CC(/C=C/c3ccccc3O)=NN2c2cccc(S(=O)(=O)O)c2)N1c1nc2ccccc2s1 (stereo not given) | 27.8 | 35.5 | 47.7 | 58 | 26 | – | 51.2 | 26.2 | 33.2 | 39 | 42 | > 100 | 29 | 50.5 | 86.1 | 82.5 | 47 | 46.9 | 74.6 | 14.5 |
| COc1cccc2c3ccccc3c3nc[nH]c3c12 | > 100 | 44.5 | 28.4 | 46.6 | > 75.4 | > 100 | > 95 | > 100 | > 100 | > 100 | > 63.8 | > 100 | > 55.6 | > 90.5 | 28.4 | > 100 | > 100 | > 100 | > 79.2 | – |
| CC1(C)OCC(C2OC(OC(=O)c3ccc([N+](=O)[O-])cc3)C3OC(C)(C)OC23)O1 (stereo not given) | > 100 | > 100 | > 100 | > 100 | > 100 | > 100 | > 100 | > 100 | > 100 | > 100 | > 100 | 54.3 | > 100 | > 100 | > 100 | > 100 | > 100 | > 100 | > 100 | – |
| CC(=O)Oc1c2c(c(CC=C(C)C)c3c1C(=O)C1=C[C@@H]4CC5C(C)(C)OC(C/C=C(/C)C(=O)O)(C4=O)[C@@]15O3)OC(C)(CCC=C(C)C)C=C2 (stereo not given in full) | 0.53 | 0.538 | 32 | 53.9 | 0.585 | 1.91 | 0.834 | 0.526 | 1.01 | 0.598 | 1.36 | 1.39 | 1.62 | 1.82 | – | 0.999 | 0.536 | 0.339 | 0.779 | 10.6 |
| CCC/C(Cl)=N\OC(=O)Nc1cccc(C(F)(F)F)c1 | 29.7 | 25.8 | 13.6 | 5.93 | 28.8 | 18 | 37.8 | 33.9 | 41.1 | 50.3 | 31.6 | 24.3 | 33.4 | 32 | – | 36.1 | 31.9 | 34.4 | 33.8 | – |
| S=C(N/N=C/c1ccccn1)Nc1ccc(Cl)cc1 | > 100 | > 26.4 | > 100 | > 100 | > 96 | 10.5 | 3.33 | 1.09 | > 100 | > 100 | > 100 | 8.74 | > 57.7 | 59.9 | – | > 65.4 | > 100 | 8.3 | > 100 | 0.0796 |
| O=C(OC[C@H]1C[C@H]2C(=O)CCC[C@H]2O1)c1ccccc1 | > 100 | > 100 | > 100 | > 100 | > 100 | > 100 | > 100 | > 100 | > 100 | > 100 | > 100 | > 100 | – | > 100 | > 100 | > 100 | > 100 | > 100 | > 100 | > 100 |
| COC(=O)C(Cc1ccccc1)NP(=O)(O)OCC1OC(n2cc(I)c(=O)[nH]c2=O)CC1O (stereo not given) | > 100 | > 100 | > 100 | > 100 | > 100 | > 100 | > 100 | > 100 | > 100 | > 100 | > 100 | > 100 | – | > 100 | > 100 | > 100 | > 100 | > 100 | > 100 | > 100 |
| COc1cc(/C=C/c2nc(N)nnc2C)cc(OC)c1OC | > 100 | 52.5 | > 90.7 | > 100 | > 77.3 | > 65.6 | > 55.4 | > 42 | > 68.1 | 39 | > 59.8 | – | 29.5 | > 71.6 | 71.2 | > 79.4 | > 100 | > 100 | > 100 | 8.36 |
